Values of other authors as cited in patent US12404348B2, “Bifunctional chimeric molecules for labeling of kinases with target binding moieties and methods of use thereof” (The Brigham and Women's Hospital, Inc., priority 2021, dated 2025).
Read-outs that look alike come from different tables or passages of the source.

Legend:
PDK1 [1] = biological target: T1, PDK1 (Homo sapiens, UniProt O15530); conditions: for Kd: read-out: ITC Kd
T1 sequence (O15530 1-556): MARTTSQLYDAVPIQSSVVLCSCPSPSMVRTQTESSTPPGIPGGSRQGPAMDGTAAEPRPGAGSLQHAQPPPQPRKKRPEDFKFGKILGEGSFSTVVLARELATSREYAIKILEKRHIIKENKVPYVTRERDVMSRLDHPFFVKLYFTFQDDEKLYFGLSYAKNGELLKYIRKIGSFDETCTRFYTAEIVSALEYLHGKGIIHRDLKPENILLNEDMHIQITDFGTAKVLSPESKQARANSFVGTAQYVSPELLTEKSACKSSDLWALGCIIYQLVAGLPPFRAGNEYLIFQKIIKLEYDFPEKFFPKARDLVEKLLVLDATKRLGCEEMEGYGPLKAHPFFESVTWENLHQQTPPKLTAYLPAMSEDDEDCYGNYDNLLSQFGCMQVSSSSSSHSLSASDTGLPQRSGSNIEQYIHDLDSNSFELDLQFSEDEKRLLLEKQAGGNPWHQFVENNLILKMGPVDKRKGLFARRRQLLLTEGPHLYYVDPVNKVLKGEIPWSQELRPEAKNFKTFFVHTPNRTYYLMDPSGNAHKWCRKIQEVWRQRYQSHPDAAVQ

PDK1 [2] = biological target: T1, PDK1
NF-κB Pathway = conditions: 5 μM, U(37 cells)
PKCl = biological target: T2, PKCl (Homo sapiens, UniProt P41743)
T2 sequence (P41743 1-596): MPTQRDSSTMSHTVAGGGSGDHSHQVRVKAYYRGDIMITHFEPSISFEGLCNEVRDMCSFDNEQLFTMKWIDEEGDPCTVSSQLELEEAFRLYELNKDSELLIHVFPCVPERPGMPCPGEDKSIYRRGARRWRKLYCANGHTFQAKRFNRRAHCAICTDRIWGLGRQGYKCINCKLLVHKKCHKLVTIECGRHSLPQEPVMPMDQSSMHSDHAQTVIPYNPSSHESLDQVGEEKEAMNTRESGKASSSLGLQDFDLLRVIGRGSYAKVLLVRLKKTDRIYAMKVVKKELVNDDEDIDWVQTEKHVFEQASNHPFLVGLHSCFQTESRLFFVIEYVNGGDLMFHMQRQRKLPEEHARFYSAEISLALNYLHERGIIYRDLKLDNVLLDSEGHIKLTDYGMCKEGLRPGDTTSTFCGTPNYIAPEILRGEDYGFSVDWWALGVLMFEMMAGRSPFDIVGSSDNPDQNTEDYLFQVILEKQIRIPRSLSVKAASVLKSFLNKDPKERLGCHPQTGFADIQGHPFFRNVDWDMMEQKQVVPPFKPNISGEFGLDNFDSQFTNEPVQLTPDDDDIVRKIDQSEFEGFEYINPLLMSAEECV

Recombinant PKCζ = biological target: T3, Recombinant PKCζ (Homo sapiens, UniProt Q05513)
T3 sequence (Q05513 1-592): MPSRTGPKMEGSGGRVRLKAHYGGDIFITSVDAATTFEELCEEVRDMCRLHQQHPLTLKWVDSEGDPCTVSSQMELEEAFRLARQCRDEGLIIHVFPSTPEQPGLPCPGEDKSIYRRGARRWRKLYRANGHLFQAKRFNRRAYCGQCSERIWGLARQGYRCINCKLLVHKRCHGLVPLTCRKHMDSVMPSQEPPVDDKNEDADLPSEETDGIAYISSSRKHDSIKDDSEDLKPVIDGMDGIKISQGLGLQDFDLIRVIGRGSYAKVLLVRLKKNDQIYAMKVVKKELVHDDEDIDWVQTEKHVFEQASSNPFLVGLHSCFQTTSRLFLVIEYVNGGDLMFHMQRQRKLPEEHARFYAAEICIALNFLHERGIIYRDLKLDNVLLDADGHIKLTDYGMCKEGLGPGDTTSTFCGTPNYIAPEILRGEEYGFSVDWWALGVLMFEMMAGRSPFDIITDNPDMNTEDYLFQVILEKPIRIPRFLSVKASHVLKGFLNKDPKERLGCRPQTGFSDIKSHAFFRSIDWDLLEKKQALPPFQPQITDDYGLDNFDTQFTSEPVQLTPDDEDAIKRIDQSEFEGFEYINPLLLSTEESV

AKT1 [3] = biological target: T4, AKT1 (Homo sapiens, UniProt P31749)
T4 sequence (P31749 whole entry): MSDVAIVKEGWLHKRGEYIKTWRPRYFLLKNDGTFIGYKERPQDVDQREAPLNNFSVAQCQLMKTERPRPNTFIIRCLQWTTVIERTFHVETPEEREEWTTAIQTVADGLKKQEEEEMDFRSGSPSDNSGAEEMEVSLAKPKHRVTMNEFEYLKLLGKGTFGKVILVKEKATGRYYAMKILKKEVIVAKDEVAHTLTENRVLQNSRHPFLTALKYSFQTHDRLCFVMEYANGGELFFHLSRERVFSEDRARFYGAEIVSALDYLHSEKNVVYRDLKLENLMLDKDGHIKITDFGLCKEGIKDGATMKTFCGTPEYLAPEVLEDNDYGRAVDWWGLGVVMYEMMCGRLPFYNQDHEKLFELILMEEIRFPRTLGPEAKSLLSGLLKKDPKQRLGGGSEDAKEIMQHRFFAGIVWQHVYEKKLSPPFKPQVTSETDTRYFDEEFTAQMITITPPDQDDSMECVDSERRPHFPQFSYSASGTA

AKT1 [4] = biological target: T4, AKT1; remark: listed apart in the source

O=C(O)/C=C(/CCc1ccc(C(F)(F)F)cc1)c1ccccc1 [Compound 6Z]
ITC Ka (PDK1 [1]): 9.66E4 — M^-1 | ITC TΔS (PDK1 [1]): 4.79 kcal/mol | ITC ΔG (PDK1 [1]): -6.73 kcal/mol | ITC ΔH (PDK1 [1]): -1.94 kcal/mol | ITC ΔH/ΔG (PDK1 [1]): 28.8% | Kd (PDK1 [1]): 10.4 µM | Amax (PDK1 [2]): 4.4 fold | AC50 (PDK1 [2]; read-out: AC50): 7.1 µM

CC(C)(C)C1=NN(c2ccc(F)cc2)C(c2ccc(O)cc2)C1 (stereo not shown) [1b]
NF-κB reporter gene assay % inhibin at 5 μM (NF-κB Pathway): 63.8%

O=C(O)/C=C(/CCc1ccc(Cl)cc1Cl)c1ccccc1 [Compound 8Z]
ITC Ka (PDK1 [1]): 1.71E5 — M^-1 | ITC TΔS (PDK1 [1]): 4.93 kcal/mol | ITC ΔG (PDK1 [1]): -7.07 kcal/mol | ITC ΔH (PDK1 [1]): -2.08 kcal/mol | ITC ΔH/ΔG (PDK1 [1]): 29.5% | Amax (PDK1 [2]): 2.1 fold | AC50 (PDK1 [2]; read-out: AC50): 4.7 µM

O=C(O)/C=C(/CCc1ccc(Cl)c(Cl)c1)c1ccccc1 [Compound 7Z]
ITC Ka (PDK1 [1]): 7.18E4 — M^-1 | ITC TΔS (PDK1 [1]): 2.80 kcal/mol | ITC ΔG (PDK1 [1]): -6.56 kcal/mol | ITC ΔH (PDK1 [1]): -3.71 kcal/mol | ITC ΔH/ΔG (PDK1 [1]): 56.6% | Kd (PDK1 [1]): 13.9 µM | Amax (PDK1 [2]): 2.4 fold | AC50 (PDK1 [2]; read-out: AC50): 2.8 µM

CC(C)(C)C1=NN(c2ccc(F)c(F)c2)C(c2ccc(O)cc2)C1 (stereo not shown) [1s]
PKCl % inhibn at 20 μM (PKCl): 23.7%

Cc1ccc(N2N=C(C(C)(C)C)CC2c2ccc(O)cc2)c(C)c1 (stereo not shown) [1p]
NF-κB reporter gene assay % inhibin at 5 μM (NF-κB Pathway): 41.5% | cell-free assay % inhibin at 62.5 μM (Recombinant PKCζ): 59.9%

CCc1ccc(CC/C(=C/C(=O)O)c2ccccc2)cc1 [Compound 10Z]
Amax (PDK1 [2]): 1.4 fold | AC50 (PDK1 [2]; read-out: AC50): > 30 µM

O=C(O)/C=C(/CCc1ccc(-c2ccccc2)cc1)c1ccccc1 [Compound 11Z]
Amax (PDK1 [2]): 3.2 fold

CC(C)(C)c1cccc(-n2c(-c3cccnc3N)nc3cccnc32)c1 [Compound 3h]
IC50 (AKT1 [3]): > 300 µM | Akt1 ΔTm (AKT1 [4]): no shift

O=C(O)/C=C(\CCc1ccc(Cl)cc1Cl)c1ccccc1 [Compound 8E]
AC50 (PDK1 [2]): n.e. | Amax (PDK1 [2]): n.e.

CC(C)(C)C1=NN(c2ccc(F)cc2F)C(c2ccc(O)cc2)C1 (stereo not shown) [1o]
NF-κB reporter gene assay % inhibin at 5 μM (NF-κB Pathway): 51.8% | cell-free assay % inhibin at 62.5 μM (Recombinant PKCζ): 68.0%

CCc1ccc(CC/C(=C\C(=O)O)c2ccccc2)cc1 [Compound 10E]
AC50 (PDK1 [2]): n.e. | Amax (PDK1 [2]): n.e.

CC(=O)NC1=NN(c2ccc(Cl)c(Cl)c2)CC1C (stereo not shown) [Compound 45]
In Vivo Plasma Concentration (40 min): 5540 ± 233 ng/mL | In Vivo Plasma Concentration (180 min): 2540 ± 143 ng/mL

O=C(O)/C=C(/CCc1cccc(Cl)c1)c1ccccc1 [Compound 3Z]
Amax (PDK1 [2]): 2.2 fold

CC(C)(C)C1=NN(c2ccc(Cl)cc2Cl)C(c2ccc(O)cc2)C1 (stereo not shown) [1n]
NF-κB reporter gene assay % inhibin at 5 μM (NF-κB Pathway): 50.2% | cell-free assay % inhibin at 62.5 μM (Recombinant PKCζ): 71.0%

COc1ccccc1Cn1c(-c2cccnc2N)nc2cccnc21 [Compound 3c]
Akt1 ΔTm (AKT1 [4]): no shift

Nc1ncccc1-c1nc2cccnc2n1-c1ccc(CNCc2ccccc2)cc1 [Compound 8h]
Akt1 ΔTm (AKT1 [4]): 4.9 °C

O=C(O)/C=C(\CCc1ccc(F)cc1)c1ccccc1 [Compound 4E]
AC50 (PDK1 [2]): n.e. | Amax (PDK1 [2]): n.e.

CC(=O)Nc1ccc(-n2c(-c3cccnc3N)nc3cccnc32)cc1 [Compound 5c]
Akt1 ΔTm (AKT1 [4]): 3.7 °C

CC(C)(C)C1=NN(c2cccc(Cl)c2)C(c2ccc(O)cc2)C1 (stereo not shown) [1h]
NF-κB reporter gene assay % inhibin at 5 μM (NF-κB Pathway): 64.6% | PKCl % inhibn at 20 μM (PKCl): 43.5%

CC(C)(C)c1ccc(-n2c(-c3cccnc3N)nc3cc(Br)cnc32)cc1 [Compound 3g]
IC50 (AKT1 [3]): > 300 µM | Akt1 ΔTm (AKT1 [4]): 0.9 °C

O=C(O)/C=C(/CCc1c[nH]c2ccccc12)c1ccccc1 [Compound 13Z]
ITC Ka (PDK1 [1]): 9.63E4 — M^-1 | ITC TΔS (PDK1 [1]): 2.60 kcal/mol | ITC ΔG (PDK1 [1]): -6.73 kcal/mol | ITC ΔH (PDK1 [1]): -4.09 kcal/mol | ITC ΔH/ΔG (PDK1 [1]): 60.8% | Amax (PDK1 [2]): 3.1 fold
